The record followed here is PubChem BioAssay AID504738 (National Center for Advancing Translational Sciences (NCATS), 2011).

What is called solubility is how much of the substance goes into solution per volume.

The subject of this series is kinetic aqueous solubility, PBS pH 7.4, LC-UV/MS. As to the kind of experiment: Inhibitors of Bloom's syndrome helicase: Aqueous Profiling Assay. From the text:
Survival of cells and the faithful propagation of the genome depend on elaborate mechanisms of detecting and repairing DNA damage. Treatment of advanced cancer relies on radiation therapy or chemotherapy, which kill cancer cells by causing extensive DNA damage. It is often found, that cancer cells develop resistance to therapy through enhanced activity of DNA repair functions; this has led to an increased interest in developing drugs that interfere with DNA repair, which could sensitize cancer cells to conventional therapy. Bloom syndrome helicase (BLM), is important in resolving abnormal DNA structures formed during replication or homologous recombination. Shutting down the expression of BLM leads to chromosomal instability and higher radiation sensitivity in cultured cells. This bioassay provides profiling data on aqueous kinetic solubility (PBS @ pH 7.4) of one of the lead compounds developed in the APE1 inhibitors project. NIH Chemical Genomics Center [NCGC] NIH Molecular Libraries Probe Production Centers Network [MLPCN] MLSCN Grant: MH087284 PI Name: Dr. Opher Gileadi, Structural Genomics Consortium, University of Oxford, UK
1. 8ul of reference and test compound stock solution were added to 392ul 100mM phosphate buffer (pH 7.4) 2. Sample tubes were shaken for 1 hr (1000 rpm) at room temperature 3. […] Concentration of the supernatant was determined by LC-UV or LC-MS/MS

In the case of `O=C(Nc1ccc(F)c(C(F)(F)F)c1)Nc1nnc(-c2ccncc2)s1`, the solubility was 2 µM.
